Test results published in BigSolDB 2.1.

Work on `O=C1Nc2ccccc2C1=O` yielded a solubility (mole fraction) (in PEG-400, 298.15 K) of 0.0985, a solubility (mole fraction) (in PEG-400, 308.15 K) of 0.109 and a solubility (mole fraction) (in PEG-400, 318.15 K) of 0.121. For the same compound, the solubility (mole fraction) (in PEG-400, 328.15 K) was 0.132, the solubility (mole fraction) (in PEG-400, 338.15 K) was 0.144 and the solubility (mole fraction) (in ethanol, 298.15 K) was 0.00409. It also gave a solubility (mole fraction) (in ethanol, 308.15 K) of 0.00506, a solubility (mole fraction) (in ethanol, 318.15 K) of 0.0065 and a solubility (mole fraction) (in ethanol, 328.15 K) of 0.00755. The solubility (mole fraction) (in ethanol, 338.15 K) was 0.00897, the solubility (mole fraction) (in ethyl acetate, 298.15 K) was 0.00568 and the solubility (mole fraction) (in ethyl acetate, 308.15 K) was 0.00738. It also gave a solubility (mole fraction) (in ethyl acetate, 318.15 K) of 0.00926, a solubility (mole fraction) (in ethyl acetate, 328.15 K) of 0.0111 and a solubility (mole fraction) (in ethyl acetate, 338.15 K) of 0.013. The solubility (mole fraction) (in ethylene glycol, 298.15 K) was 0.00754, the solubility (mole fraction) (in ethylene glycol, 308.15 K) was 0.0092 and the solubility (mole fraction) (in ethylene glycol, 318.15 K) was 0.011. The solubility (mole fraction) (in ethylene glycol, 328.15 K) was 0.0127, the solubility (mole fraction) (in ethylene glycol, 338.15 K) was 0.0146 and the solubility (mole fraction) (in isopropanol, 298.15 K) was 0.00419. For the same compound, the solubility (mole fraction) (in isopropanol, 308.15 K) was 0.00545, the solubility (mole fraction) (in isopropanol, 318.15 K) was 0.00694 and the solubility (mole fraction) (in isopropanol, 328.15 K) was 0.00867. It also gave a solubility (mole fraction) (in isopropanol, 338.15 K) of 0.0105, a solubility (mole fraction) (in propylene glycol, 298.15 K) of 0.00673 and a solubility (mole fraction) (in propylene glycol, 308.15 K) of 0.00827. For the same compound, the solubility (mole fraction) (in propylene glycol, 318.15 K) was 0.01, the solubility (mole fraction) (in propylene glycol, 328.15 K) was 0.0112 and the solubility (mole fraction) (in propylene glycol, 338.15 K) was 0.0133. For the same compound, the solubility (mole fraction) (in sec-butanol, 298.15 K) was 0.00516, the solubility (mole fraction) (in sec-butanol, 308.15 K) was 0.00596 and the solubility (mole fraction) (in sec-butanol, 318.15 K) was 0.0071. It also gave a solubility (mole fraction) (in sec-butanol, 328.15 K) of 0.00814, a solubility (mole fraction) (in sec-butanol, 338.15 K) of 0.00899 and a solubility (mole fraction) (in transcutol, 298.15 K) of 0.523. The solubility (mole fraction) (in transcutol, 308.15 K) was 0.539, the solubility (mole fraction) (in transcutol, 318.15 K) was 0.561 and the solubility (mole fraction) (in transcutol, 328.15 K) was 0.581. For the same compound, the solubility (mole fraction) (in transcutol, 338.15 K) was 0.598, the solubility (mole fraction) (in water, 298.15 K) was 5.14e-05 and the solubility (mole fraction) (in water, 308.15 K) was 8.08e-05. For the same compound, the solubility (mole fraction) (in water, 318.15 K) was 0.000113, the solubility (mole fraction) (in water, 328.15 K) was 0.000152 and the solubility (mole fraction) (in water, 338.15 K) was 0.000202.
